In paper PMC10847306, “The antibacterial activity and mechanism of a novel peptide MR-22 against multidrug-resistant Escherichia coli” (Frontiers in Cellular and Infection Microbiology, 2024):

What was measured:
E. coli ATCC 25922 = assay: microbe, parasite or virus in culture
Experimental: (§1) The MIC were determined by a micro dilution method in Mueller-Hinton broth (MHB) ([Cuenca-Estrella et al., 2010]). The final concentration of bacterial suspension in MHB were 1.0×10^6 CFU/mL. The final concentration of MR-22 ranged 1 ~ 256 μg/mL in 96 wells plate broth at 37°C for 16~18 h. Imipenem was employed as positive control, bacterial grown without treatment as negative control and MHB as blank control. MIC determination was performed by reading the OD600 nm. Take 100 μL samples in holes that have never seen bacterial growth and place them on the LB agar board. The concentration of MR-22 with no bacterial growth was defined as the MBC.

E. coli E19 = assay: Mice peritonitis model; assay type: in vivo; settings: C57BL/6J mice, E19 peritonitis; 10 mg/kg 1 h after infection; after 36 h; ten mice per group; control group 8.73 ± 0.38
Experimental: This study utilized female C57BL/6J mice aged 6-8 weeks, weight range of 18-20 g, which were obtained from SPF Biotechnology Co., Ltd (Beijing, China). The animals were housed under maintained on a standard 12 h light/12 h dark cycle. All animal experiments were conducted in accordance with the Ethical Principles in Animal Research adopted by Guizhou Medical University and were approved by the Institutional Animal Care and Use Committee.
To evaluate the in vivo efficacy of MR-22, we used a mice peritonitis model. A total of 60 mice were divided into three groups: treatment group (10 mg/kg MR-22, intraperitoneal injection), positive control group (10 mg/kg imipenem, intraperitoneal injection), and normal control group (PBS, intraperitoneal injection). Peritonitis was induced by intraperitoneal injection of 1.0 × 10^8 CFU bacterial inoculum in 0.2 mL of E. coli E19. Survival rates were recorded every 12 h for 7 days.
To study the protective effects of MR-22, 10 mice in each group were sacrificed, and peritoneal lavage fluid, blood, liver, and kidney were collected 36 h after administration. The number of colonies in peritoneal lavage fluid and blood were determined by culturing on LB agar, while the tissues were fixed in 4% paraformaldehyde and subjected to hematoxylin and eosin staining to study the morphology.

[1] = test system: E. coli clinical strain E03; assay: microbe, parasite or virus in culture
Experimental: (§2) The clinical strains used in this study were obtained from a tertiary healthcare facility located in Guiyang, a city situated within the Guizhou Province of China. The E. coli ATCC 25922 was obtained from the Key and Characteristic Laboratory of Modern Pathogen Biology at Guizhou Medical University in Guiyang, China. All strains were stored at –80°C in LB medium and routinely cultured at LB medium at 37°C.
as §1

[2] = test system: E. coli clinical strain E06; assay: microbe, parasite or virus in culture
Experimental: as §2, §1

[3] = test system: E. coli clinical strain E11; assay: microbe, parasite or virus in culture
Experimental: as §2, §1

[4] = test system: E. coli clinical strain E22; assay: microbe, parasite or virus in culture
Experimental: as §2, §1

[5] = test system: E. coli clinical strain E01; assay: microbe, parasite or virus in culture
Experimental: as §2, §1

[6] = test system: E. coli clinical strain E08; assay: microbe, parasite or virus in culture
Experimental: as §2, §1

[7] = test system: E. coli clinical strain E04; assay: microbe, parasite or virus in culture
Experimental: as §2, §1

[8] = test system: E. coli clinical strain E18; assay: microbe, parasite or virus in culture
Experimental: as §2, §1

[9] = test system: E. coli clinical strain E16; assay: microbe, parasite or virus in culture
Experimental: as §2, §1

[10] = test system: E. coli clinical strain E07; assay: microbe, parasite or virus in culture
Experimental: as §2, §1

[11] = test system: E. coli clinical strain E20; assay: microbe, parasite or virus in culture
Experimental: as §2, §1

[12] = test system: E. coli clinical strain E13; assay: microbe, parasite or virus in culture
Experimental: as §2, §1

[13] = test system: E. coli clinical strain E17; assay: microbe, parasite or virus in culture
Experimental: as §2, §1

[14] = test system: E. coli clinical strain E19; assay: microbe, parasite or virus in culture
Experimental: as §2, §1

[15] = test system: E. coli clinical strain E09; assay: microbe, parasite or virus in culture
Experimental: as §2, §1

[16] = test system: E. coli clinical strain E21; assay: microbe, parasite or virus in culture
Experimental: as §2, §1

[17] = test system: E. coli clinical strain E05; assay: microbe, parasite or virus in culture
Experimental: as §2, §1

[18] = test system: E. coli clinical strain E02; assay: microbe, parasite or virus in culture
Experimental: as §2, §1

[19] = test system: E. coli clinical strain E15; assay: microbe, parasite or virus in culture
Experimental: as §2, §1

[20] = test system: E. coli clinical strain E10; assay: microbe, parasite or virus in culture
Experimental: as §2, §1

[21] = test system: E. coli clinical strain E14; assay: microbe, parasite or virus in culture
Experimental: as §2, §1

[22] = test system: E. coli clinical strain E12; assay: microbe, parasite or virus in culture
Experimental: as §2, §1

[23] = test system: E. coli ATCC 25922 and clinically drug resistant isolated strains; assay: microbe, parasite or virus in culture; assay type: cell-based, Escherichia coli; settings: Escherichia coli; E. coli ATCC 25922 and 22 clinical isolates; microdilution, MHB; read-out: MIC over all strains tested
Experimental: as §1

- susceptibility category (S/I/R) given with the MIC (E. coli ATCC 25922; E. coli ATCC 25922): S
- MIC (E. coli ATCC 25922; Escherichia coli, ATCC25922, 18 h): ≤ 1 µg/mL
- MIC ([1]; Escherichia coli, 18 h): ≤ 1 µg/mL
- susceptibility category (S/I/R) given with the MIC ([1]; strain E03): S
- MIC ([2]; Escherichia coli, 18 h): ≤ 1 µg/mL
- susceptibility category (S/I/R) given with the MIC ([2]; strain E06): S
- MIC ([3]; Escherichia coli, 18 h): ≤ 1 µg/mL
- susceptibility category (S/I/R) given with the MIC ([3]; strain E11): S
- MIC ([4]; Escherichia coli, 18 h): ≤ 1 µg/mL
- susceptibility category (S/I/R) given with the MIC ([4]; strain E22): S
- MIC ([5]; Escherichia coli, 18 h): ≤ 1 µg/mL
- susceptibility category (S/I/R) given with the MIC ([5]; strain E01): S
- MIC ([6]; Escherichia coli, 18 h): ≤ 1 µg/mL
- susceptibility category (S/I/R) given with the MIC ([6]; strain E08): S
- MIC ([7]; Escherichia coli, 18 h): ≤ 1 µg/mL
- susceptibility category (S/I/R) given with the MIC ([7]; strain E04): S
- MIC ([8]; Escherichia coli, 18 h): ≤ 1 µg/mL
- susceptibility category (S/I/R) given with the MIC ([8]; strain E18): S
- MIC ([9]; Escherichia coli, 18 h): ≤ 1 µg/mL
- susceptibility category (S/I/R) given with the MIC ([9]; strain E16): S
- MIC ([10]; Escherichia coli, 18 h): ≤ 1 µg/mL
- susceptibility category (S/I/R) given with the MIC ([10]; strain E07): S
- MIC ([11]; Escherichia coli, 18 h): ≤ 1 µg/mL
- susceptibility category (S/I/R) given with the MIC ([11]; strain E20): S
- MIC ([12]; Escherichia coli, 18 h): ≤ 1 µg/mL
- susceptibility category (S/I/R) given with the MIC ([12]; strain E13): S
- MIC ([13]; Escherichia coli, 18 h): ≤ 1 µg/mL
- susceptibility category (S/I/R) given with the MIC ([13]; strain E17): S
- MIC ([14]; Escherichia coli, 18 h): ≤ 1 µg/mL
- susceptibility category (S/I/R) given with the MIC ([14]; strain E19): S
- MIC ([15]; Escherichia coli, 18 h): ≤ 1 µg/mL
- susceptibility category (S/I/R) given with the MIC ([15]; strain E09): S
- MIC ([16]; Escherichia coli, 18 h): ≤ 1 µg/mL
- susceptibility category (S/I/R) given with the MIC ([16]; strain E21): S
- MIC ([17]; Escherichia coli, 18 h): ≤ 1 µg/mL
- susceptibility category (S/I/R) given with the MIC ([17]; strain E05): S
- MIC ([18]; Escherichia coli, 18 h): ≤ 1 µg/mL
- susceptibility category (S/I/R) given with the MIC ([18]; strain E02): S
- MIC ([19]; Escherichia coli, 18 h): ≤ 1 µg/mL
- susceptibility category (S/I/R) given with the MIC ([19]; strain E15): S
- MIC ([20]; Escherichia coli, 18 h): ≤ 1 µg/mL
- susceptibility category (S/I/R) given with the MIC ([20]; strain E10): S
- MIC ([21]; Escherichia coli, 18 h): ≤ 1 µg/mL
- susceptibility category (S/I/R) given with the MIC ([21]; strain E14): S
- MIC ([22]; Escherichia coli, 18 h): ≤ 1 µg/mL
- susceptibility category (S/I/R) given with the MIC ([22]; strain E12): S
- MIC [23]: ≤ 1 µg/mL
Structure (SMILES): C[C@@H](O)[C@H]1C(=O)N2C(C(=O)O)=C(SCCN=CN)C[C@H]12 [IPM, imipenem]
- bacterial content in the peritoneal lavage fluid (E. coli E19): 4.20 ± 0.25 Log10CFU/mL
